Legend:
[1] = tested on: Com21 synthetic gut community; test: community biomass OD578 after 24 h drug treatment relative to untreated (fraction of untreated control); higher = more community growth; conditions: community: Com21 (Com20 + E. coli ED1a)
Method: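 Com21 (Com20 plus E. coli ED1a) was treated with drug for 24 h under anaerobic conditions in mGAM. Community OD578 was then measured and normalised to untreated Com21; mean of 3 biological replicates.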

[2] = tested on: Eubacterium rectale; test: IC25 growth inhibition; higher = less potent
Summary of the method: (§1)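 Monocultures grown overnight in mGAM were added to pre-reduced plates holding twofold drug dilutions, giving a starting OD578 of 0.01 and 1% DMSO (or water). Growth was followed anaerobically by hourly OD578 readings in a plate reader, with at least three biological replicates. The median growth-curve AUC per concentration was forced to be monotonic. IC25 was the lowest concentration with median AUC below 0.75, reported as a tested interval.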

[3] = tested on: Ruminococcus gnavus; test: IC25 growth inhibition; higher = less potent
Summary of the method: as §1

[4] = tested on: Dorea formicigenerans; test: IC25 growth inhibition; higher = less potent
Summary of the method: as §1

[5] = tested on: Roseburia intestinalis; test: IC25 growth inhibition; higher = less potent
Summary of the method: as §1

[6] = tested on: Bacteroides vulgatus; test: IC25 growth inhibition; higher = less potent
Summary of the method: as §1

[7] = tested on: Fusobacterium nucleatum subsp. Nucleatum; test: IC25 growth inhibition; higher = less potent
Summary of the method: as §1

[8] = tested on: Collinsella aerofaciens; test: IC25 growth inhibition; higher = less potent
Summary of the method: as §1

[9] = tested on: Bacteroides uniformis; test: IC25 growth inhibition; higher = less potent
Summary of the method: as §1

[10] = tested on: Streptococcus salivarius; test: IC25 growth inhibition; higher = less potent
Summary of the method: as §1

[11] = tested on: Clostridium ramosum; test: IC25 growth inhibition; higher = less potent
Summary of the method: as §1

[12] = tested on: Salmonella enterica typhimurium; test: IC25 growth inhibition; higher = less potent
Summary of the method: as §1

[13] = tested on: Yersinia enterocolitica WA-314; test: IC25 growth inhibition; higher = less potent
Summary of the method: as §1

[14] = tested on: Coprococcus comes; test: IC25 growth inhibition; higher = less potent
Summary of the method: as §1

[15] = tested on: Yersinia pseudotuberculosis; test: IC25 growth inhibition; higher = less potent
Summary of the method: as §1

[16] = tested on: Streptococcus parasanguinis; test: IC25 growth inhibition; higher = less potent
Summary of the method: as §1

[17] = tested on: Bacteroides thetaiotaomicron; test: IC25 growth inhibition; higher = less potent
Summary of the method: as §1

[18] = tested on: Vibrio cholerae; test: IC25 growth inhibition; higher = less potent
Summary of the method: as §1

[19] = tested on: Clostridium saccharolyticum; test: IC25 growth inhibition; higher = less potent
Summary of the method: as §1

[20] = tested on: Clostridium bolteae; test: IC25 growth inhibition; higher = less potent
Summary of the method: as §1

[21] = tested on: Escherichia coli ED1a; test: IC25 growth inhibition; higher = less potent
Summary of the method: as §1

[22] = tested on: Clostridium perfringens; test: IC25 growth inhibition; higher = less potent
Summary of the method: as §1

[23] = tested on: Shigella flexneri; test: IC25 growth inhibition; higher = less potent
Summary of the method: as §1

[24] = tested on: Parabacteroides merdae; test: IC25 growth inhibition; higher = less potent
Summary of the method: as §1

[25] = tested on: Bacteroides fragilis NT; test: IC25 growth inhibition; higher = less potent
Summary of the method: as §1

[26] = drug pretreatment concentration 10 µM
[27] = drug pretreatment concentration 20 µM
[28] = drug pretreatment concentration 40 µM
[29] = drug pretreatment concentration 80 µM
[30] = drug pretreatment concentration 160 µM
[31] = drug pretreatment concentration 5 µM
[32] = drug pretreatment concentration 2.5 µM
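Wherever IC25 growth inhibition is given: lowest concentration where monotonic median growth AUC falls below 0.75 of drug-free control.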

Structure (SMILES) | community biomass OD578 [1, 26] | community biomass OD578 [1, 27] | community biomass OD578 [1, 28] | community biomass OD578 [1, 29] | community biomass OD578 [1, 30] | IC25 growth inhibition [2] [µM] | IC25 growth inhibition [3] [µM] | IC25 growth inhibition [4] [µM] | IC25 growth inhibition [5] [µM] | IC25 growth inhibition [6] [µM] | IC25 growth inhibition [7] [µM] | IC25 growth inhibition [8] [µM] | IC25 growth inhibition [9] [µM] | IC25 growth inhibition [10] [µM] | IC25 growth inhibition [11] [µM] | IC25 growth inhibition [12] [µM] | IC25 growth inhibition [13] [µM] | IC25 growth inhibition [14] [µM] | IC25 growth inhibition [15] [µM] | IC25 growth inhibition [16] [µM] | IC25 growth inhibition [17] [µM] | IC25 growth inhibition [18] [µM] | IC25 growth inhibition [19] [µM] | IC25 growth inhibition [20] [µM] | IC25 growth inhibition [21] [µM] | IC25 growth inhibition [22] [µM] | IC25 growth inhibition [23] [µM] | IC25 growth inhibition [24] [µM] | IC25 growth inhibition [25] [µM] | community biomass OD578 [1, 31] | community biomass OD578 [1, 32]
CC[C@H]1OC(=O)[C@H](C)[C@@H](O[C@H]2C[C@@](C)(OC)[C@@H](O)[C@H](C)O2)[C@H](C)[C@@H](O[C@@H]2O[C@H](C)C[C@H](N(C)C)[C@H]2O)[C@](C)(O)C[C@@H](C)C(=O)[C@H](C)[C@@H](O)[C@]1(C)O [Erythromycin] | 0.734 | 0.696 | 0.608 | 0.496 | 0.409 | < 1.25 | < 1.25 | < 1.25 | < 1.25 | < 1.25 | ≤ 5 | < 1.25 | < 1.25 | < 1.25 | < 1.25 | ≤ 40 | ≤ 20 | < 1.25 | ≤ 40 | < 1.25 | < 1.25 | < 1.25 | < 1.25 | ≤ 2.5 | ≤ 20 | < 1.25 | ≤ 10 | < 1.25 | < 1.25 | – | –
C#C[C@]1(O)CC[C@H]2[C@@H]3CCc4cc(O)ccc4[C@H]3CC[C@@]21C [Ethinylestradiol] | 0.986 | 0.99 | 0.976 | 0.779 | – | > 80 | > 80 | > 80 | > 80 | > 80 | > 80 | > 80 | > 80 | > 80 | > 80 | > 80 | > 80 | > 80 | > 80 | > 80 | > 80 | ≤ 40 | > 80 | > 80 | > 80 | > 80 | > 80 | > 80 | > 80 | 1.01 | –
CCN(CC)C(C)CN1c2ccccc2Sc2ccccc21 (configuration not stated) [Ethopropazine] | 0.981 | 0.995 | 0.997 | 0.992 | 0.97 | > 80 | > 80 | > 80 | ≤ 80 | < 1.25 | > 80 | > 80 | ≤ 10 | > 80 | > 80 | > 80 | > 80 | > 80 | > 80 | > 80 | ≤ 2.5 | > 80 | > 80 | > 80 | > 160 | > 80 | > 80 | < 1.25 | ≤ 10 | – | –
O=c1[nH]c(=O)n([C@H]2C[C@H](O)[C@@H](CO)O2)cc1F [Floxuridine] | 0.993 | 0.907 | 0.886 | 0.882 | 0.88 | > 160 | ≤ 2.5 | > 160 | > 160 | < 1.25 | ≤ 80 | > 160 | < 1.25 | < 1.25 | < 1.25 | ≤ 40 | ≤ 20 | > 160 | ≤ 5 | < 1.25 | < 1.25 | ≤ 10 | ≤ 160 | ≤ 80 | ≤ 10 | < 1.25 | ≤ 20 | > 160 | < 1.25 | – | –
OC(Cn1cncn1)(Cn1cncn1)c1ccc(F)cc1F [Fluconazole] | 0.936 | 1.02 | 0.993 | 0.99 | 1.04 | ≤ 40 | > 160 | > 160 | > 160 | > 160 | > 160 | ≤ 160 | > 160 | > 160 | > 160 | > 160 | > 160 | > 160 | > 160 | > 160 | > 160 | > 160 | > 160 | > 160 | > 160 | > 160 | > 160 | > 160 | > 160 | – | –
CC(=O)N1CCN(c2ccc(OCC3COC(Cn4ccnc4)(c4ccc(Cl)cc4Cl)O3)cc2)CC1 (configuration not stated) [Ketoconazole] | 0.941 | 0.979 | 0.953 | 0.928 | 0.731 | ≤ 40 | ≤ 80 | ≤ 40 | ≤ 80 | ≤ 40 | ≤ 160 | ≤ 80 | ≤ 40 | ≤ 80 | > 160 | > 160 | > 80 | ≤ 40 | > 160 | > 80 | ≤ 80 | > 160 | ≤ 80 | > 160 | > 160 | ≤ 80 | > 80 | ≤ 40 | ≤ 80 | – | –
N[C@@H](Cc1cc(I)c(Oc2cc(I)c(O)c(I)c2)c(I)c1)C(=O)O [L-Thyroxin] | 1.01 | 1.03 | 1.02 | – | – | > 160 | > 160 | ≤ 80 | > 160 | > 160 | > 160 | > 160 | > 160 | > 160 | > 160 | > 160 | > 160 | > 160 | > 160 | > 160 | > 160 | > 160 | > 160 | > 160 | > 40 | > 160 | > 160 | > 160 | > 160 | 0.999 | 0.996
CCOC(=O)C1=C(C)NC(C)=C(C(=O)OCC)C1c1ccccc1/C=C/C(=O)OC(C)(C)C [Lacidipine] | 1.04 | 1 | 0.963 | – | – | > 40 | > 40 | > 40 | ≤ 20 | > 40 | > 40 | > 20 | > 40 | > 40 | > 40 | > 20 | > 20 | > 20 | > 20 | > 20 | > 20 | > 40 | > 20 | > 20 | > 40 | ≤ 40 | > 40 | > 40 | > 40 | 1.01 | 1.01

From the supplement of paper PMC12350171
